Data from patent US9840716B2, “Resveratrol-enriched rice and the use thereof” (REPUBLIC OF KOREA (MANAGEMENT: RURAL DEVELOPMENT …, priority 2012, dated 2017).

Assays:
[1] = system: animal models (mice) induced with a metabolic disease by a long-term high fat diet; assay: Comparative measurement of blood glucose in animal models induced with a metabolic disease; assay type: in vivo, C57BL/6 inbred mice; settings: 12 weeks of feeding, compared with control or comparison groups
Description: The effects of rice containing resveratrol of the present invention at high concentration on a metabolic disease were examined using animal models (mice) induced with a metabolic disease by a long-term high fat diet. Particularly, each of 15 C57BL/6 inbred mice was fed with a high fat diet for 12 weeks, thereby establishing models induced with a metabolic disease such as diabetes, obesity, hyperlipidemia, hypercholesterolemia, etc. Next, the feed produced from seeds of transformed rice or Dongjin rice was distributed to animals for 12 weeks. After 12 weeks of distribution, via blood sampling from a tail vein once every 3 weeks, blood glucose, cholesterol, etc., were analyzed, thereby examining the effects of resveratrol-enriched transgenic rice and transformed rice in animal models induced with a metabolic disease. As described above, after feeding feed for experimental animals, in which carbohydrate components were replaced with Dongjin rice and resveratrol-enriched transgenic rice to mice induced with a metabolic disease, the level of blood glucose was measured (FIG. 2). […] As described above, after feeding the feed, in which carbohydrate components were replaced with Dongjin rice and resveratrol-enriched transgenic rice, to mice with an induced metabolic disease, the level of blood glucose was measured (FIG. 5).

[2] = system: yeasts; settings: on average, when resveratrol is added; cited from earlier work

SMILES: Oc1ccc(C=Cc2cc(O)cc(O)c2)cc1 [resveratrol]
- blood glucose level (result in words) [1]: did not show a remarkable difference
- increase of the life span of yeasts [2]: 70%
